Assay results taken from patent US12559474B2, “Triazine derivatives having virus replication inhibitory activity and pharmaceutical composition comprising the same” (priority 2021, dated 2026).
Like-named read-outs stand apart in the source and are kept apart here.

Columns and labels:
[1] = system: SARS-CoV-2; experiment: microbe, parasite or virus in culture; format: cell-based; conditions: Severe acute respiratory syndrome coronavirus 2, VeroE6/TMPRSS2, 72 h, 50% SARS-CoV-2 infected cell death inhibitory concentration, VeroE6/TMPRSS2 cells, 3 days culture
[2] = target: SARS-CoV-2 3CL protease (Severe acute respiratory syndrome coronavirus 2, UniProt P0DTD1); experiment: biochemical; conditions: 50% SARS-CoV-2 3CL protease inhibitory concentration, read-out: IC50

SMILES	EC50 ([1]; class symbols)	IC50 ([2]; given as class symbols)	EC50 ([1]; CellTiter-Glo 2.0)	IC50 ([2]; RapidFire MS)
Cc1cncc(-n2c(=O)nc(Nc3cc4cn(C5COC5)nc4cc3Cl)n(Cc3ccc(F)c(C#N)c3)c2=O)c1 [II-0158]	1000 to 10000 nM	< 100 nM		
N#Cc1cc(Cn2c(Nc3ccc4c(c3)CCCO4)nc(=O)n(-c3cncc4ccccc34)c2=O)ccc1F [II-0159]	< 1000 nM	< 100 nM		
Cc1cc2c(cc1Nc1nc(=O)n(-c3cncc4ccccc34)c(=O)n1Cc1ccc(F)c(C#N)c1)CCO2 [II-0160]	< 1000 nM	< 100 nM		
Cc1cncc(-n2c(=O)nc(Nc3cc4cn(C)nc4cc3Cl)n(Cc3cc(F)cc(C#N)c3)c2=O)c1 [II-0161]	< 1000 nM	< 100 nM		
COc1ccc(Nc2nc(=O)n(-c3cncc(C)c3)c(=O)n2Cc2ccc(F)c(C#N)c2)c(C)c1 [II-0162]	< 1000 nM	< 100 nM		
Cn1cnc(Cn2c(=O)nc(Nc3cc4cn(CC(F)F)nc4cc3Cl)n(Cc3cc(F)c(F)cc3F)c2=O)n1 [II-0163]			342 nM	8.8 nM
Cc1cncc(-n2c(=O)nc(Nc3cc4cn(C)nc4cc3Cl)n(Cc3cc(F)c(F)c(F)c3F)c2=O)c1 [II-0164]			195 nM	9 nM
COc1ccc(Nc2nc(=O)n(-c3cncc(C)c3)c(=O)n2Cc2ccc(F)c(C#N)c2)c(Cl)c1 [II-0165]	< 1000 nM	< 100 nM		
Cc1cncc(-n2c(=O)nc(Nc3ccc4c(c3)CCCO4)n(Cc3ccc(F)c(C#N)c3)c2=O)c1 [II-0166]	< 1000 nM	< 100 nM		
Cc1cncc(-n2c(=O)nc(Nc3cc4cn(C)nc4cc3Br)n(Cc3ccc(F)c(C#N)c3)c2=O)c1 [II-0167]	< 1000 nM	< 100 nM		
CC(C)n1cc2cc(Nc3nc(=O)n(-c4cncc5ccccc45)c(=O)n3Cc3ccc(F)c(C#N)c3)ccc2n1 [II-0168]	< 1000 nM	< 100 nM		
COc1ccc(Nc2nc(=O)n(-c3cncc4ccccc34)c(=O)n2Cc2ccc(F)c(C#N)c2)c(C)c1 [II-0169]	< 1000 nM	< 100 nM		
Cc1cncc(-n2c(=O)nc(Nc3cc4cn(C)nc4cc3Cl)n(Cc3cccc(F)c3C)c2=O)c1 [II-0171]	< 1000 nM	< 100 nM		
Cc1cncc(-n2c(=O)nc(Nc3cc4c(cc3C)OCC4)n(Cc3ccc(F)c(C#N)c3)c2=O)c1 [II-0172]	< 1000 nM	< 100 nM		
Cc1cncc(-n2c(=O)nc(Nc3ccc4nn(C)cc4c3)n(Cc3ccc(F)c(C#N)c3)c2=O)c1 [II-0173]			272 nM	15 nM
COc1ccc(Nc2nc(=O)n(-c3cncc(C)c3)c(=O)n2Cc2ccc(F)c(C#N)c2)c(Br)c1 [II-0174]	< 1000 nM	< 100 nM		
Cc1cncc(-n2c(=O)nc(Nc3cc4cn(C)nc4cc3Cl)n(Cc3ccc(F)c(F)c3F)c2=O)c1 [II-0175]	< 1000 nM	< 100 nM		
Cc1nc2ccc(Nc3nc(=O)n(-c4cncc5ccccc45)c(=O)n3Cc3ccc(F)c(C#N)c3)cc2o1 [II-0176]	< 1000 nM	< 100 nM		
Cc1cncc(-n2c(=O)nc(Nc3cc4cn(C)nc4cc3Cl)n(Cc3cc(F)cc(Cl)c3)c2=O)c1 [II-0177]	< 1000 nM	< 100 nM		
COc1ccc(Nc2nc(=O)n(-c3cncc4ccccc34)c(=O)n2Cc2ccc(F)c(C#N)c2)c(F)c1 [II-0178]	< 1000 nM	< 100 nM		

SMILES	EC50 ([1]; class symbols)	IC50 ([2]; given as class symbols)	EC50 ([1]; CellTiter-Glo 2.0)	IC50 ([2]; RapidFire MS)
Cn1cnc(Cn2c(=O)nc(Nc3cc4cn(C)nc4cc3Cl)n(Cc3ccc(F)c(Br)c3)c2=O)n1 [II-0179]	1000 to 10000 nM	< 100 nM		
COc1ccc(Nc2nc(=O)n(-c3cncc(C)c3)c(=O)n2Cc2ccc(F)c(C#N)c2)c(F)c1 [II-0180]	< 1000 nM	< 100 nM		
Cc1cncc(-n2c(=O)nc(Nc3cc4cn(C)nc4cc3Cl)n(Cc3cc(C#N)ccc3Cc3cccc(Cl)c3)c2=O)c1 [II-0181]	< 1000 nM	< 100 nM		
COc1ccc(Nc2nc(=O)n(-c3cncc(C)c3)c(=O)n2Cc2ccc(F)c(C#N)c2)cc1 [II-0182]	< 1000 nM	< 100 nM		
Cc1cncc(-n2c(=O)nc(Nc3ccc4nn(C)nc4c3)n(Cc3ccc(F)c(C#N)c3)c2=O)c1 [II-0183]	< 1000 nM	< 100 nM		
Cn1cnc(Cn2c(=O)nc(Nc3cc4cn(C)nc4cc3Cl)n(Cc3cc(F)c(F)c(C#N)c3)c2=O)n1 [II-0184]	1000 to 10000 nM	< 100 nM		
Cc1cncc(-n2c(=O)nc(Nc3cc4cn(C)nc4cc3Cl)n(Cc3ccc(F)cc3F)c2=O)c1 [II-0185]	< 1000 nM	< 100 nM		
Cc1cncc(-n2c(=O)nc(Nc3cc4cn(C)nc4cc3Cl)n(Cc3cc(Cl)cc(C#N)c3)c2=O)c1 [II-0186]	1000 to 10000 nM	< 100 nM		
Cc1cncc(-n2c(=O)nc(Nc3cc4cn(C)nc4cc3Cl)n(Cc3cccc(F)c3F)c2=O)c1 [II-0187]	< 1000 nM	< 100 nM		
Cc1cncc(-n2c(=O)nc(Nc3cc4cn(C)nc4cc3Cl)n(Cc3cccc(F)c3Cl)c2=O)c1 [II-0188]	< 1000 nM	< 100 nM		
Cn1cnc(Cn2c(=O)nc(Nc3cc4cn(C)nc4cc3Cl)n(Cc3cc(F)cc(F)c3F)c2=O)n1 [II-0189]	1000 to 10000 nM	< 100 nM		
Cn1cnc(Cn2c(=O)nc(Nc3cc4cn(C)nc4cc3Cl)n(Cc3ccc(F)c(F)c3F)c2=O)n1 [II-0190]	1000 to 10000 nM	< 100 nM		
Cc1cncc(-n2c(=O)nc(Nc3cc4sc(C)nc4cc3C)n(Cc3ccc(F)c(C#N)c3)c2=O)c1 [II-0191]	< 1000 nM	< 100 nM		
Cc1nc2cc(C)c(Nc3nc(=O)n(-c4cncc5ccccc45)c(=O)n3Cc3ccc(F)c(C#N)c3)cc2o1 [II-0192]			454 nM	37 nM
Cc1cncc(-n2c(=O)nc(Nc3cc4sc(C)nc4cc3Cl)n(Cc3ccc(F)c(C#N)c3)c2=O)c1 [II-0193]	1000 to 10000 nM	< 100 nM		
Cc1cncc(-n2c(=O)nc(Nc3ccc4oc(C)c(C)c4c3)n(Cc3ccc(F)c(C#N)c3)c2=O)c1 [II-0195]	1000 to 10000 nM	< 100 nM		
Cc1cncc(-n2c(=O)nc(Nc3ccc4oc(C)cc4c3)n(Cc3ccc(F)c(C#N)c3)c2=O)c1 [II-0196]	< 1000 nM	< 100 nM		
Cc1cncc(-n2c(=O)nc(Nc3ccc4nc(C)sc4c3)n(Cc3ccc(F)c(C#N)c3)c2=O)c1 [II-0197]	< 1000 nM	< 100 nM		
Cc1nc2ccc(Nc3nc(=O)n(-c4cncc5ccccc45)c(=O)n3Cc3ccc(F)c(C#N)c3)cc2s1 [II-0198]	< 1000 nM	< 100 nM		
Cc1cncc(-n2c(=O)nc(Nc3cc4cn(C)nc4cc3Cl)n(Cc3cc(F)ccc3F)c2=O)c1 [II-0199]	< 1000 nM	< 100 nM		

SMILES	EC50 ([1]; class symbols)	IC50 ([2]; given as class symbols)	EC50 ([1]; CellTiter-Glo 2.0)	IC50 ([2]; RapidFire MS)
N#Cc1cc(Cn2c(Nc3ccc4ncccc4c3)nc(=O)n(-c3cncc4ccccc34)c2=O)ccc1F [II-0200]	1000 to 10000 nM	< 100 nM		
Cc1cncc(-n2c(=O)nc(Nc3cc4cn(C)nc4cc3Cl)n(Cc3cc(F)cc(F)c3)c2=O)c1 [II-0201]	< 1000 nM	< 100 nM		
Cn1cnc(Cn2c(=O)nc(Nc3cc4cn(C)nc4cc3Cl)n(Cc3ccc(F)cc3F)c2=O)n1 [II-0202]	1000 to 10000 nM	< 100 nM		
Cc1cncc(-n2c(=O)nc(Nc3ccc4c(c3)CCO4)n(Cc3cc(F)c(F)c(F)c3)c2=O)c1 [II-0203]	< 1000 nM	< 100 nM		
Cc1cncc(-n2c(=O)nc(Nc3ccc4ncccc4c3)n(Cc3ccc(F)c(C#N)c3)c2=O)c1 [II-0204]	1000 to 10000 nM	< 100 nM		
Cc1cncc(-n2c(=O)nc(Nc3cc4cn(C)nc4cc3Cl)n(Cc3cc(Cl)cc(Cl)c3)c2=O)c1 [II-0205]	1000 to 10000 nM	< 100 nM		
Cn1cnc(Cn2c(=O)nc(Nc3cc4cn(C)nc4cc3Cl)n(Cc3cc(F)cc(F)c3)c2=O)n1 [II-0207]	1000 to 10000 nM	< 100 nM		
Cc1cncc(-n2c(=O)nc(Nc3cc4cn(C)nc4cc3Cl)n(Cc3cc(Br)cc(C#N)c3)c2=O)c1 [II-0210]	1000 to 10000 nM	< 100 nM		
Cc1cc(F)cc(Cn2c(Nc3cc4cn(C)nc4cc3Cl)nc(=O)n(-c3cncc(C)c3)c2=O)c1 [II-0212]	< 1000 nM	< 100 nM		
CC1c2ccccc2CN1c1nc(=O)n(Cc2ccc[nH]c2=O)c(=O)n1Cc1cc(F)c(F)c(F)c1 (stereo not drawn) [II-0213]	1000 to 10000 nM	< 100 nM		
Cn1cnc(Cn2c(=O)nc(Nc3cc4cn(C)nc4cc3Cl)n(Cc3cccc(F)c3Cl)c2=O)n1 [II-0214]	1000 to 10000 nM	< 100 nM		
Cc1cncc(-n2c(=O)nc(Nc3cc4cn(C)nc4cc3Cl)n(Cc3cc(Cl)cc(Br)c3)c2=O)c1 [II-0215]	1000 to 10000 nM	< 100 nM		
Cn1cnc(Cn2c(=O)nc(Nc3cc4cn(C)nc4cc3Cl)n(Cc3cccc(F)c3F)c2=O)n1 [II-0217]	1000 to 10000 nM	< 100 nM		
Cn1cnc(Cn2c(=O)nc(Nc3cc4cn(C)nc4cc3Cl)n(Cc3ccc(F)cc3Br)c2=O)n1 [II-0218]	1000 to 10000 nM	< 100 nM		
Cc1cncc(-n2c(=O)nc(Nc3cc4c(cc3C)OCC4)n(Cc3cc(F)c(F)c(F)c3)c2=O)c1 [II-0219]	1000 to 10000 nM	< 100 nM		
Cc1cncc(-n2c(=O)nc(Nc3cc4cn(C)nc4cc3Cl)n(Cc3ccc(F)cc3Br)c2=O)c1 [II-0220]	1000 to 10000 nM	< 100 nM		
Cc1cncc(-n2c(=O)nc(Nc3ccc4nn(C)nc4c3)n(Cc3cc(F)c(F)c(F)c3)c2=O)c1 [II-0221]	1000 to 10000 nM	< 100 nM		
Cc1cncc(-n2c(=O)nc(N3CCC(C)(C)CC3)n(Cc3cc(F)c(F)c(F)c3)c2=O)c1 [II-0222]	< 1000 nM	< 100 nM		
Cn1cnc(Cn2c(=O)nc(Nc3cc4cn(C)nc4cc3Cl)n(Cc3cccc4ccccc34)c2=O)n1 [II-0223]			22500 nM	780 nM
O=c1[nH]cccc1Cn1c(=O)nc(N2CC3(CCC3)C2)n(Cc2cc(F)c(F)c(F)c2)c1=O [II-0226]			2770 nM	130 nM
